For orientation: IC50 means the point on the concentration scale where inhibition reaches its midpoint. A higher IC50 goes with a need for much substance.

The target of this experiment is T1, PDE 4 enzyme.
T1 construct: % at 10^−7; other: at 10^−7; PDE 4 from U937 cell line; other: PDE 4 isolated from U937 cell line; SPA with 3H-cAMP
Kind of experiment: PDE 4 enzyme inhibition (SPA). The note with it: PDE 4 isolated from U937 cell line; SPA with 3H-cAMP. Type of experiment: biochemical. As for the experimental part: a) PDE 4 Enzyme Purification
PDE 4 enzyme was isolated from U937 cell line according to the method of Nielson et al. (J. Allergy Clin. Immunol. 1990, vol. 86, pages 801-807) partially modified for the FPLC technique (Fast Protein Liquid Chromatography).
U-937cell line (Istituto Zooprofilattico Sperimentale, Brescia, Italy) was maintained in RPMI 1640, with 10% foetal calf serum and 2 mM glutamine, at a cell density between 1×10^6 and 8×10^6 cells per ml in an incubator at 37° C. with 5% CO2.
U937 suspension was homogenised in a buffer containing 10 mM TRIS (tri-(hydroxymethyl)-aminomethane), 5 mM MgCl2, 4 mM EGTA (ethyleneglycol-bis-(β-aminoethylether)-N,N,N′N′-tetra-acetic acid), 5 mM […]-mercaptoethanol, 1 μM leupeptin, 1 μM pepstatin, 1% TRITON x-100, and 100 μM phenylmethyl sulfonyl fluoride (PMSF) at pH 7.8.
The homogenate was centrifuged and the supernatant was used for the purification of the PDE 4 enzyme; it was seeded on a column connected to a biologic chromatography system (FPLC, BIO RAD).
PDE 4 enzyme was eluted with a linear gradient, from 0.05 M to 1 M of sodium acetate, and elution fractions were collected for PDE4 activity assay.
The fractions containing PDE4 activity were collected and, after an overnight dialysis against water to remove sodium acetate, were concentrated to 30% volume with an Amicon filtration system (using YM10 membrane filter).
Ethylene glycol (30% v/v) was added and the sample was stored at −20° C. in a single aliquot until the use.
PDE 4 activity assay was performed using Scintillation Proximity Assay (SPA) Amershan kit consisting of tracer ^3H-cAMP, PDE assay buffer (10×solution: 500 mM TRIS/HCl pH 7.5, 83 mM MgCl2 and 17 mM EGTA) and Yttrium SPA PDE beads (containing 18 mM zinc sulphate).
The radioactivity of the beads was measured using a scintillation counter (Packard model MINAXI β TRI-CARB 4000 SERIES).
The IC50 values were calculated from concentration-inhibition curves by non linear regression analysis using the program ORIGIN 3.5 (MICROCAL SOFTWARE INC.) and each fitting was the mean±SEM of 3 experiments using different PDE 4 preparations.

`COc1ccc2c(Cc3c(Cl)cncc3Cl)nnc(-c3sccc3C(=O)O)c2c1` [Compound 10, 2-[4-(3,5-dichloro-pyridin-4-ylmethyl)-7-methoxy-phthalazin-1-yl]-thiophene-3-carboxylic Acid] yielded an IC50 of 0.048 µM. In turn, `COc1ccc2c(Cc3c(Cl)cncc3Cl)nnc(-c3cccc(C(=O)O)c3)c2c1` [Compound 2, 3-[4-(3,5-dichloro-pyridin-4-ylmethyl)-7-methoxy-phthalazin-1-yl]-benzoic Acid] had an IC50 of 0.037 µM.
